Key:
Type in all cases: in vivo
[1] = test system: sweet sensitive subjects; test: Sweetness quality evaluation (time of onset, localization, duration); settings: for Sensory evaluation of sweetness intensity: sweetness quality
Protocol: (§1) Rebaudioside A (99%+, purified from plant extract, Sweet Aloha Farms, LLC) (1 ppm, 10 ppm, 20 ppm, 30 ppm) in 2% sucrose samples was evaluated for the qualities of the sweetness of the samples (time of onset, localization, duration). The sensory evaluations were conducted as follows. All samples were presented at ambient temperature in 15 ml aliquots and presented blindly to sweet sensitive subjects of varying sweet sensitivity. Subjects tasted the samples and were asked to evaluate the quality of sweetness. Sucrose solutions (2% and 7%) were presented as references.
Rebaudioside A (99%+, purified from plant extract, Sweet Aloha Farms, LLC) (1 ppm, 10 ppm, 20 ppm, 30 ppm) in 7% sucrose samples were evaluated for the qualities of the sweetness of the samples (time of onset, localization, duration). The sensory evaluations were conducted as follows. All samples were presented at ambient temperature in 15 ml aliquots and presented blindly to sweet sensitive subjects of varying sweet sensitivity. Subjects tasted the samples and were asked to evaluate the quality of the sweetness. Sucrose solutions (2% and 7%) were presented as references to evaluate the sweetness of the rebaudioside A samples.
as §1, with “Stevioside extract (95%+,” for “Rebaudioside A (99%+,”, “Apin Chemicals) (20” for “Sweet Aloha Farms, LLC) (1 ppm, 10 ppm, 20”, “30 ppm, 40 ppm, 50” for “30”, “ppm) was evaluated” for “ppm)”, “sucrose” for “sucrose samples was evaluated”, “sweetness qualities.” for “quality of sweetness.”
Stevioside (20 ppm, 30 ppm, 40 ppm, 50 ppm) was evaluated in 7% sucrose for the qualities of the sweetness of the samples (time of onset, localization, duration). The sensory evaluations were conducted as follows. All samples were presented at ambient temperature in 15 ml aliquots and presented blindly to sweet sensitive subjects of varying sweet sensitivity. Subjects tasted the samples and were asked to evaluate the sweetness qualities. Sucrose solutions (2% and 7%) were presented as references to evaluate the sweetness of the stevioside samples.

[2] = test system: sweet sensitive panelists; test: Ranking test, sweetness isointensity of enhancer in sweetener solution (Example 3a)
Protocol: Ranking Tests to Determine the Sweetness Isointensity of Sweetness Enhancers to Sucrose Solutions
For comparative ranking, samples of 0.5%, 1%, 1.5%, 7%, 8%, 9%, 10% and 11% sucrose solutions were prepared.
3a) Sweetness Isointensity of Sweetness Enhancer in Sucrose Solutions
The sensory evaluation was conducted using a ranking method. Samples at ambient temperature were randomly presented in 15 ml blind aliquots (unidentifiable by panelists). Panels consisted of 10 sweet sensitive subjects and samples were presented in 4 replications over 2 sessions. After tasting each sample, the mouth was rinsed thoroughly with water at ambient temperature prior to tasting the next sample. Panelists were presented with 7%, 8%, 9%, 10%, 11% sucrose samples and a sixth sample of 7% sucrose with a sweetness enhancer in a concentration near its sweetness detection threshold. They were asked to rank the samples from low to high with respect to perceived sweet taste. R-indices were calculated for 7% sucrose with the sweetness enhancer versus 7%, 8%, 9%, 10% or 11% sucrose.

[3] = test system: sweet sensitive panelists; test: Ranking test, near threshold sweetness isointensity of enhancer in water (Example 3b); settings: for isointensity to sucrose solution: 20 ppm in water, by interpolation
Protocol: The sensory evaluation was conducted using a ranking method. Samples at ambient temperature were randomly presented in 15 ml blind aliquots (unidentifiable by panelists). […] After tasting each sample, the mouth was rinsed thoroughly with water at ambient temperature prior to tasting the next sample. […] They were asked to rank the samples from low to high with respect to perceived sweet taste.

[4] = test system: sweet sensitive panelists; test: Comparative sensory evaluation of sweetness enhancers in sweetener solution or water (Example 1)
Protocol: Comparative sensory evaluation of sweetness enhancers in 2 or 7% sucrose
The test samples contained the potential sweetness enhancers in 0% sucrose (water), 2% sucrose, or 7% sucrose, and control samples of 0%, 2% and 7% sucrose without any additive. The sensory evaluations were conducted as follows. All samples were presented at ambient temperature in 15 ml aliquots to panels consisting of 5-9 sweet sensitive subjects of varying sweet sensitivity. After tasting each sample, the mouth was rinsed thoroughly with water at ambient temperature prior to tasting the next sample. The sucrose positive control (2% or 7%) was presented first and served as the sweetness reference to which all sweetness enhancer/sucrose combinations were directly compared.
One tasting sequence included tasting the sucrose control first, rinsing with water, tasting the sweetness enhancer/sucrose sample, rinsing with water followed by tasting the sucrose control again. Once the sequence was completed, each panelist chose the sample which was sweeter and evaluated the sweetness of each sample relative to one another.
In a second tasting sequence, this same procedure was followed for the water negative control versus the sweetness enhancer/water samples to determine the sweet taste due to the sweetness enhancer itself at each tested concentration.
Panelists evaluated the sweetness of the sweetness enhancer in water for each concentration. For their evaluation, panelists were allowed to compare any perceived sweetness of the sweetness enhancer to the 2% or 7% sucrose control to determine the relative intensity of sweetness. Mild sweet taste corresponds to the taste of 2% sucrose, strong sweet taste corresponds to the taste of 7% sucrose.
Alternatively to sucrose, the evaluation may be performed with another sweetener, for example, high fructose (55%) corn syrup (HFCS, containing 55% fructose and 45% glucose), erythritol, sucralose, aspartame, or acesulfame potassium (AceK).

[5] = test system: sweet sensitive panelists; test: Paired comparison of sweetness enhancers in water versus sucrose (Example 4, modified)
Protocol: Paired Comparisons of Sweetness Enhancers and Mixtures Thereof in Water and 7% Sucrose
Samples of sweetness enhancers were prepared in water or 7% sucrose. One, two or three sweetness enhancers were used in a sample. All samples were presented to panelists at ambient temperature. The sensory evaluation was conducted using a paired comparison method. […] Samples were paired randomly and presented in unidentifiable pairs of two (left and right) to the panelists in random order. The sample on the left was tasted first, followed by rinsing the mouth with water, then tasting the sample on the right. Once completing the sequence, each panelist ranked the pair of samples for sweetness then evaluated samples with respect to one another with the following descriptors (in ascending order): […]

[6] = test system: panelists; test: Fractionated swingle extract: comparative sensory evaluation in 0% and 2% sucrose; settings: from fractions at 60 ppm in 2% sucrose and LC-MS analysis
Protocol: Swingle extract, comprising 80% total mogroside content by weight, was fractionated by reversed phase (C-18) flash chromatography. Compounds were eluted using a mixture of methanol (MeOH) in water starting at 30% MeOH (264 ml) followed by a linear gradient of 30-80% MeOH (1320 ml) then finally the column was flushed with 80% MeOH (264 ml). The solvents were introduced at a flow rate of 30 ml/min throughout the separation procedure. Eluted compounds were visualized with a UV detector set at 210 nm and a Corona light scattering detector. Collected fractions were pooled according to the table below then freeze dried to powders.
The powders corresponding to various pooled fractions as given in the table below were dissolved in a concentration of 60 ppm in either 0% or 2% sucrose. The sample in 0% sucrose when determined to be sweet was in addition to the 0% sucrose control also compared to a 2% sucrose control and to the other fractions to estimate the degree of sweetness.

[7] = 20 ppm in 7% sucrose vs 7% sucrose
[8] = 20 ppm in 7% sucrose vs 8% sucrose
[9] = 20 ppm in 7% sucrose vs 9% sucrose
[10] = 20 ppm in 7% sucrose vs 10% sucrose
[11] = 20 ppm in 7% sucrose vs 11% sucrose
[12] = 20 ppm in water vs 0.5% sucrose
[13] = 20 ppm in water vs 1.5% sucrose

## C=C1C[C@@]23CC[C@H]4[C@@](C)(CCC[C@@]4(C)C(=O)O[C@@H]4O[C@H](CO)[C@@H](O)[C@H](O)[C@H]4O)[C@@H]2CC[C@]1(O[C@@H]1O[C@H](CO)[C@@H](O)[C@H](O[C@@H]2O[C@H](CO)[C@@H](O)[C@H](O)[C@H]2O)[C@H]1O[C@@H]1O[C@H](CO)[C@@H](O)[C@H](O)[C@H]1O)C3 [Rebaudioside A]
[1]; 1 ppm in 7% sucrose
  Sensory evaluation of sweetness intensity (strength, onset, localisation, duration): immediate onset, full mouth sweet, non-lingering
[1]; 10 ppm in 7% sucrose
  Sensory evaluation of sweetness intensity (strength, onset, localisation, duration): immediate onset, full mouth sweet, non-lingering
[1]; 20 ppm in 7% sucrose
  Sensory evaluation of sweetness intensity (strength, onset, localisation, duration): immediate onset, full mouth sweet, non-lingering
[1]; 1 ppm in 2% sucrose
  Sensory evaluation of sweetness intensity: immediate onset, full mouth sweet, non-lingering
[1]; 10 ppm in 2% sucrose
  Sensory evaluation of sweetness intensity: immediate onset full mouth sweet, non-lingering
[1]; 20 ppm in 2% sucrose
  Sensory evaluation of sweetness intensity: immediate onset, full mouth sweet, non-lingering
[2]; [7]
  R-index: 91%
  Rebaudioside A sample sweetness: sweeter
[2]; [8]
  R-index: 72%
  Rebaudioside A sample sweetness: sweeter
[2]; [9]
  R-index: 7%
  Rebaudioside A sample sweetness: less sweet
[2]; [10]
  R-index: 0%
  Rebaudioside A sample sweetness: less sweet
[2]; [11]
  R-index: 0%
  Rebaudioside A sample sweetness: less sweet
[2]; 20 ppm in 7% sucrose, by interpolation
  sweetness isointensity to sucrose: 8.5 % sucrose
[3]; [12]
  R-index: 84%
  sample sweetness (RedA, 20 ppm): sweeter
[3]; 20 ppm in water vs 1% sucrose
  R-index: 12%
  sample sweetness (RedA, 20 ppm): less sweet
[3]; [13]
  R-index: 0%
  sample sweetness (RedA, 20 ppm): less sweet
[3]; listed as rebaudioside
  isointensity to sucrose solution: about 0.75 % sucrose
[3]; listed as rebaudioside A
  isointensity to sucrose solution: 0.75 % sucrose
[4]; 1 ppm in 2% sucrose
  Sensory evaluation of sweetness intensity: barely perceived as sweeter than sucrose control
[4]; 1 ppm in 7% sucrose
  Sensory evaluation of sweetness intensity: very weakly sweeter than sucrose control
[4]; 1 ppm in water (Example 8A)
  Sensory evaluation of sweetness intensity: no sweetness
[4]; 1 ppm in water (Example 8B)
  Sensory evaluation of sweetness intensity: no sweetness
[4]; 10 ppm in 2% sucrose
  Sensory evaluation of sweetness intensity: notably sweeter than sucrose control
[4]; 10 ppm in 7% sucrose
  Sensory evaluation of sweetness intensity: notably sweeter than sucrose control
[4]; 10 ppm in water (Example 8A)
  Sensory evaluation of sweetness intensity: barely perceivable, late onsetting sweet
[4]; 10 ppm in water (Example 8B)
  Sensory evaluation of sweetness intensity: barely perceivable, late onsetting sweet
[4]; 20 ppm in 2% sucrose
  Sensory evaluation of sweetness intensity: much sweeter than sucrose control
[4]; 20 ppm in 7% sucrose
  Sensory evaluation of sweetness intensity: much sweeter than sucrose control
[4]; 20 ppm in water (Example 8A)
  Sensory evaluation of sweetness intensity: barely perceivable sweetness
[4]; 20 ppm in water (Example 8B)
  Sensory evaluation of sweetness intensity: barely perceivable sweetness
[4]; 30 ppm in 2% sucrose
  Sensory evaluation of sweetness intensity: substantially sweeter than sucrose control
[4]; 30 ppm in 7% sucrose
  Sensory evaluation of sweetness intensity: substantially sweeter than sucrose control
[4]; 30 ppm in water (Example 8A)
  Sensory evaluation of sweetness intensity: very weak sweetness far below the 2% sucrose control
[4]; 30 ppm in water (Example 8B)
  Sensory evaluation of sweetness intensity: very weak sweetness far below the 2% sucrose control
[5]; 1 ppm in water vs 0% sucrose
  Result of comparison: isosweet
[5]; 10 ppm in water vs 0% sucrose
  Result of comparison: weakly sweeter
[5]; 10 ppm in water vs 0.5% sucrose
  Result of comparison: notably less sweet
[5]; [12]
  Result of comparison: notably sweeter
[5]; 20 ppm in water vs 1% sucrose
  Result of comparison: less sweet
[5]; 30 ppm in water
  isointensity to sucrose solution: 1 % sucrose
[5]; 30 ppm in water vs 1% sucrose
  Result of comparison: isosweet
[5]; 30 ppm in water vs 1.5% sucrose
  Result of comparison: significantly less sweet

## C[C@H](CC[C@@H](O[C@@H]1O[C@H](CO)[C@@H](O)[C@H](O)[C@H]1O[C@@H]1O[C@H](CO)[C@@H](O)[C@H](O)[C@H]1O)C(C)(C)O)[C@H]1CC[C@@]2(C)[C@H]3CC=C4[C@@H](CC[C@H](O[C@@H]5O[C@H](CO[C@@H]6O[C@H](CO)[C@@H](O)[C@H](O)[C@H]6O)[C@@H](O)[C@H](O)[C@H]5O)C4(C)C)[C@]3(C)[C@H](O)C[C@]12C [mogroside IV]
[6]
  contribution to the observed enhancement effect of swingle extract: contributing marginally

## C[C@H](CC[C@@H](O[C@@H]1O[C@H](CO[C@@H]2O[C@H](CO)[C@@H](O)[C@H](O)[C@H]2O)[C@@H](O)[C@H](O)[C@H]1O[C@@H]1O[C@H](CO)[C@@H](O)[C@H](O)[C@H]1O)C(C)(C)O)[C@H]1CC[C@@]2(C)[C@@H]3CC=C4[C@@H](CC[C@H](O[C@@H]5O[C@H](CO[C@@H]6O[C@H](CO)[C@@H](O)[C@H](O)[C@H]6O)[C@@H](O)[C@H](O)[C@H]5O)C4(C)C)[C@]3(C)[C@H](O)C[C@]12C [mogroside V]
[6]
  contribution to the observed enhancement effect of swingle extract: mainly due to mogroside V

## C[C@H](CC[C@@H](O[C@@H]1O[C@H](CO[C@@H]2O[C@H](CO)[C@@H](O)[C@H](O)[C@H]2O)[C@@H](O)[C@H](O)[C@H]1O[C@@H]1O[C@H](CO)[C@@H](O)[C@H](O)[C@H]1O)C(C)(C)O)[C@H]1CC[C@@]2(C)[C@@H]3CC=C4[C@@H](CC[C@H](O[C@@H]5O[C@H](CO)[C@@H](O)[C@H](O)[C@H]5O)C4(C)C)[C@]3(C)[C@H](O)C[C@]12C [siamenoside I]
[6]
  contribution to the observed enhancement effect of swingle extract: contributing marginally

— patent US20210015134A1, “CONSUMABLES” (Givaudan S.A., priority 2006, published 2021)
